Read-outs that look alike come from different tables or passages of the source.
Assays:
[1] = system: HL-60 (Leukemia) cell line; experiment: Proliferation of HL-60; assay type: cell-based
Description: (§1) The diterpenoid compounds were tested in A549, a non-small cell lung cancer cell line harboring a K-Ras activating mutation. Briefly, A549 cells at a density of 1,000 cells/well were seeded in 96-well plates and incubated at 37° C. for 24 hours. A series of different concentrations of compound stocks (500×) were prepared by 3-fold serial dilution in DMSO. These compounds were further diluted in culture media and then added to cells so that the final DMSO concentration was not exceeding 0.25%. After 96 hours of incubation, 50 μL of CellTiter Glo reagent (Promega) was added to each well and luminescence was measured after 10 minutes using EnVision (PerkinElmer). Luminescence from cells treated with DMSO alone was set as Max and % of inhibition was calculated as follows: Inhibition %=(Max−Sample value)/Max×100. Data was analyzed using XL-fit software (ID Business Solutions Ltd.) and IC50, relative IC50, and % of top inhibition was calculated. Some of the compounds in this disclosure were very potent in blocking proliferation of A549 lung cancer cells at low nM range. In addition, potency of inhibiting A549 proliferation correlated well with its binding affinity to PKCs for this series of compounds. In other words, higher affinity binders had stronger inhibitory effects on A549 proliferation. This further support the notion that activation, rather than inhibition, of certain PKC isoforms is required to block proliferation of cancer cells, some of which may harbor K-Ras mutations. This is in sharp contrast to previous literature and common belief that inhibition of PKC is necessary to block cancer cell growth (Kang, 2014, New Journal of Science, 2014:1-36). Data presented here is in agreement with recent findings that many loss-of-function but not gain-of-function mutations of PKC isoforms have been identified in many human cancers (Antal et al., 2015, Cell, 160:489-502).
(§2) The compounds in this disclosure were tested for their potency in blocking proliferation of a few other cancer cells lines, including K-Ras mutant pancreatic cell lines Panc2.13 and KP-4, leukemia cell line HL-60, and lymphoma cell lines Namalwa and Mino. Similar procedures as in Example 67 were followed. Initial cell numbers seeded in 96-well plates were different for different cell lines: 3000 cells/well for Panc2.13; 800-1000 cells/well for KP-4; 5000 cells/well for HL-60; 5000-10000 cells/well for Namalwa and Mino. A ratio ratio of (IC50 of K01)/(IC50 of compound) (data in parenthesis in Table 5) was used to normalize the compound potency from different assay batches to a common comparator […].

[2] = system: Mino (Lymphoma) cell line; experiment: Proliferation of Mino; assay type: cell-based
Description: as §1, §2

[3] = system: A549 non-small cell lung cancer cell line; experiment: Proliferation of A549 (CellTiter Glo); assay type: cell-based; conditions: Homo sapiens, read-out: IC50 μM (A549 Cell Line)
Method in brief: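 A549 cells (K-Ras mutant) seeded 1,000/well, 24 h at 37° C, then treated with 3-fold serial dilutions (final DMSO ≤0.25%) for 96 h. Viability by CellTiter Glo luminescence; % inhibition vs DMSO-only Max, curve-fit to give IC50, relative IC50 and % top inhibition.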

[4] = system: phosphorylation of CaMKii at T286 in Panc1 cells; experiment: CaMKii phosphorylation in Panc1 cell line (Western blot); assay type: cell-based; conditions: 0.2 μM and 1 μM, 48 hours (FIG. 5)
Description: Panc1 (a pancreatic cancer cell line) cells (˜5-8 millions) were seeded in 10 cm dishes (or ˜2 millions in 6 cm dishes) and treated next day with prostratin (K-101, 0.2 μM and 1 μM) or 0.02 μM and […] of K101-C1347, -C134801, and -C134802 for 48 hours. Cells were then collected/lysed for Western blot analysis. Protein quantification, SDS-PAGE, and Western blot procedures were performed as described in Example 65, except that a different lysis buffer (1 ml of 10×TNE [20 mL 1M Tris pH7.5; 30 mL 5M NaCl; 2 mL 0.5M EDTA; 48 mL d2H2O], 1 ml of 10% NP40, 7.7 mL of dH2O, 100 μL of 10× Protease inhibitors, 100 μL of 10× Phosphatase inhibitors, and 10 μl DTT) was used. To assess the effect of diterpenoid compounds on CaMKii phosphorylation, a phospho-specific antibody P-CaMKii (T286) (Abcam, cat #32678) was used for detection. Phosphorylation of CaMKii at T286 is a marker for activation of CaMKii kinase in the Wnt/Ca^2+ signaling pathway when […] and thus a downstream marker for inhibition of K-Ras stemness (Wang et al., Cell. 2015, 163(5):1237-51).

PANC1 cells = experiment: Sphere formation assay (cancer stemness); assay type: cell-based; conditions: Homo sapiens, PANC-1, read-out: concentration exhibiting at least 50% inhibition on the sphere forming efficiency
Description: A group of diterpenoid compounds of the present disclosure were tested to assess their effects on blocking formation of spheres from cancer cell lines such as PANC1, a K-Ras mutant pancreatic cell line. Briefly, PANC1 cells were harvested, re-suspended as single cell suspensions, counted and seeded into Ultra Low Attachment Culture 96-well plate (Corning, Cat #3474) at 100 cells/well in 100 μl of complete media (with 10% FBS) containing 2% Matrigel (Corning, Cat #354234) and DMSO or compounds. Six replicates per condition were seeded. The seeded cells were placed in the 37° C. tissue culture incubator. 10 μl of low serum containing media (with 0.1% FBS) was added to each well every week. Spheres formed after 3-4 weeks were counted. Sphere forming efficiency was expressed as percentage of # of spheres/# of cells seeded.

[5] = system: KP-4 (Pancreatic) cell line; experiment: Proliferation of KP-4; assay type: cell-based
Description: as §1, §2

[6] = system: Namalwa (Lymphoma) cell line; experiment: Proliferation of Namalwa; assay type: cell-based; conditions: for IC50: read-out: IC50 in μM Namalwa (Lymphoma); for ratio of (IC50 of K01)/(IC50 of compound), Namalwa: value in parenthesis
Description: as §1, §2

[7] = system: Panc2.13 (Pancreatic) cell line; experiment: Proliferation of Panc2.13; assay type: cell-based; conditions: for IC50: read-out: IC50 in μM Panc2.13 (Pancreatic); for ratio of (IC50 of K01)/(IC50 of compound), Panc2.13: value in parenthesis
Description: as §1, §2

C1b domain of human PKCε = target: T1, C1b domain of human PKCε (Homo sapiens, UniProt Q02156); experiment: Competitive 3H-PDBu binding to C1b domain of PKCε
T1 construct: Genes encoding C1b domains of human PKCα, δ, ε, θ, and PKD1 (PKCμ) were synthesized; made in house; host or cells: E. coli BL21(DE3)
Method in brief: (§3)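 First, the E. coli-produced human GST-C1b protein was mixed with compound and 3H-PDBu and shaken 10 min at 37° C. Next, the plate sat on ice 20 min before filtration and scintillation counting of bound tracer. Finally, IC50 fits were transformed into Ki values.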

C1b domain of human PKCθ = target: T2, C1b domain of human PKCθ (Homo sapiens, UniProt Q04759); experiment: Competitive 3H-PDBu binding to C1b domain of PKCθ
T2 construct: Genes encoding C1b domains of human PKCα, δ, ε, θ, and PKD1 (PKCμ) were synthesized; made in house; host or cells: E. coli BL21(DE3)
T2 sequence (Q04759 231-281 limits assumed): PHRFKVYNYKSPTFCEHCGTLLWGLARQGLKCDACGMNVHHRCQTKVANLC
Method in brief: as §3

C1b domain of human PKCα = target: T3, C1b domain of human PKCα (Homo sapiens, UniProt P17252); experiment: biochemical; assay type: binding; conditions: 3H-PDBu competition
T3 construct: Genes encoding C1b domains of human PKCα, δ, ε, θ, and PKD1 (PKCμ) were synthesized; made in house; host or cells: E. coli BL21(DE3)
Method in brief: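 Competitive binding against 3H-PDBu tracer used recombinant GST-C1b fusion protein expressed in E. coli. Incubation ran 10 min at 37°C with shaking, then 20 min on ice, followed by filtration and scintillation counting of trapped 3H-PDBu. Affinity was derived using each protein preparation's experimentally determined Kd for 3H-PDBu.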

[8] = system: phosphorylation of PKCμ, PKCδ and Erk1/2 in A549 lung cancer cells; assay type: cell-based; conditions: 0.3 μM, 30 minutes, Western blot (FIG. 1)
Description: Cells were then treated with different drugs at indicated concentrations for 30 minutes. […] Imagequant LAS4000 (GE) was used to scan membranes if secondary antibodies anti-mouse IgG HRP conjugate or anti-rabbit IgG HRP conjugate (dilutions from 1:2000-1:10000) were used. For ProteinSimple Wes system, manufacture's procedure was followed (ProteinSimple 12-230 kDa Wes Separation Module) for sample preparation, loading, running, and data analysis.
Phosphorylation of these sites has been linked to acute activation or catalytic activity of the PKC isoforms and Erk1/2. High level of phosphorylation indicates strong activation.

[9] = target: T4, C1b domain of human PKD1 (PKCμ) (Homo sapiens, UniProt Q15139); experiment: biochemical; assay type: binding
T4 construct: Genes encoding C1b domains of human PKCα, δ, ε, θ, and PKD1 (PKCμ) were synthesized; made in house; host or cells: E. coli BL21(DE3)
T4 sequence (Q15139 270-320 limits assumed): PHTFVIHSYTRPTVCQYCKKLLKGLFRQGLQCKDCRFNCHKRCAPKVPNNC
Method in brief: as §3

C1b domain of human PKCδ = target: T5, C1b domain of human PKCδ (Homo sapiens, UniProt Q05655); experiment: Competitive 3H-PDBu binding to C1b domain of PKCδ; conditions: Ki PKCδ, 3H-PDBu competition
T5 construct: Genes encoding C1b domains of human PKCα, δ, ε, θ, and PKD1 (PKCμ) were synthesized; made in house; host or cells: E. coli BL21(DE3)
Method in brief: as §3

[10] = Homo sapiens, HL-60, read-out: IC50 in μM HL-60 (Leukemia)
[11] = Homo sapiens, MINO, read-out: IC50 in μM Mino (Lymphoma)
[12] = Homo sapiens, KP-4, read-out: IC50 in μM KP-4 (Pancreatic)

T1 sequence (Q02156 242-292 limits assumed): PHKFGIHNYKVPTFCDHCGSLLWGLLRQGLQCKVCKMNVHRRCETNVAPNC
T5 sequence (Q05655 230-280 limits assumed): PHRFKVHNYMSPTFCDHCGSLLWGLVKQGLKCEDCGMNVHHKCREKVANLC

`CC(=O)O[C@@]12C[C@@H](C)[C@@]3(O)[C@@H](C=C(CO)C[C@]4(O)C(=O)C(C)=C[C@@H]34)[C@@H]1C2(C)C` [Compound K101, prostratin, reference compound] gave an IC50 ([1]; Homo sapiens, HL-60; read-out: IC50 in μM HL-60 (Leukemia)) of 0.2 to 0.6 µM, an IC50 ([2]; Homo sapiens, MINO; read-out: IC50 in μM Mino (Lymphoma)) of 0.06 to 0.1 µM and an IC50 ([3]; A549, 96 hours incubation, CellTiter Glo) of 0.03 to 0.06 µM. For the same molecule, the “phosphorylation of CaMKii at T286” value [4] was “induced phosphorylation of CaMKii at T286”, the IC50 (PANC1 cells; PANC1 single cell suspension, spheres counted after 3-4 weeks) was ≤ 500 nM and the IC50 ([5]; Homo sapiens, KP-4; read-out: IC50 in μM KP-4 (Pancreatic)) was 0.2 to 0.6 µM. The IC50 [6] was 0.06 to 0.1 µM and the IC50 [7] was 0.6 to 1 µM.
For `CC1=C[C@H]2[C@@]3(O)[C@H](C)C[C@]4(OC(=O)[C@@H](N)CCCc5ccccc5)[C@H]([C@@H]3C=C(CO)C[C@]2(O)C1=O)C4(C)C` [Compound K101-C1319], the “ratio of (IC50 of K01)/(IC50 of compound), HL-60” value ([1]; HL-60; value in parenthesis) was 1.79, the IC50 [1, 10] was 0.03 to 0.06 µM and the Ki (C1b domain of human PKCε) was 30 to 60 nM. The Ki (C1b domain of human PKCθ) was 5 to 10 nM, the “Ki PKCα” value (C1b domain of human PKCα) was “E (E=>60 nM and ≤10 nM)” and the “phosphorylation of PKC (PKD/PKCμ), PKCδ and Erk1/2” value [8] was “induced high levels of phosphorylation”. For the same molecule, the IC50 [2, 11] was 0.01 to 0.03 µM, the “ratio of (IC50 of K01)/(IC50 of compound), Mino” value ([2]; Mino; value in parenthesis) was 6 and the Ki [9] was < 5 nM. The Ki (C1b domain of human PKCδ) was < 5 nM, the IC50 ([3]; A549, 96 h) was 0.06 to 0.1 µM and the IC50 (PANC1 cells) was ≤ 1500 nM. For the same molecule, the IC50 [5, 12] was 0.1 to 0.2 µM, the “ratio of (IC50 of K01)/(IC50 of compound), Namalwa” value [6] was 1.53 and the IC50 [6] was 0.03 to 0.06 µM. For the same molecule, the “ratio of (IC50 of K01)/(IC50 of compound), Panc2.13” value [7] was 3.65 and the IC50 [7] was 0.2 to 0.6 µM.
With `CC1=C[C@H]2[C@@]3(O)[C@H](C)C[C@]4(OC(=O)[C@@H](N)CCC5CCCCC5)[C@H]([C@@H]3C=C(CO)C[C@]2(O)C1=O)C4(C)C` [Compound K101-C1345] the “ratio of (IC50 of K01)/(IC50 of compound), HL-60” value ([1]; HL-60; value in parenthesis) was 27.7, the IC50 [1, 10] was 0.01 to 0.03 µM and the Ki (C1b domain of human PKCε) was 1 to 30 nM. It also gave a Ki (C1b domain of human PKCθ) of 1 to 30 nM, a Ki (C1b domain of human PKCα; Ki PKCα) of 30 to 60 nM and an IC50 [2, 11] of 0.001 to 0.01 µM. The “ratio of (IC50 of K01)/(IC50 of compound), Mino” value ([2]; Mino; value in parenthesis) was 33, the Ki [9] was < 5 nM and the Ki (C1b domain of human PKCδ) was < 5 nM. The IC50 ([3]; A549, 96 h) was 0.01 to 0.03 µM, the IC50 (PANC1 cells) was ≤ 150 nM and the IC50 [5, 12] was 0.01 to 0.03 µM. For the same molecule, the “ratio of (IC50 of K01)/(IC50 of compound), Namalwa” value [6] was 7.42, the IC50 [6] was 0.001 to 0.01 µM and the “ratio of (IC50 of K01)/(IC50 of compound), Panc2.13” value [7] was 20.5. The IC50 [7] was 0.03 to 0.06 µM.
